What is called Ki is a dissociation constant, usually derived from enzyme kinetics or from competition with a known ligand.

One assay concerns the target T1, Neutrophil elastase (Homo sapiens, UniProt P08246).
T1 sequence (P08246 whole entry): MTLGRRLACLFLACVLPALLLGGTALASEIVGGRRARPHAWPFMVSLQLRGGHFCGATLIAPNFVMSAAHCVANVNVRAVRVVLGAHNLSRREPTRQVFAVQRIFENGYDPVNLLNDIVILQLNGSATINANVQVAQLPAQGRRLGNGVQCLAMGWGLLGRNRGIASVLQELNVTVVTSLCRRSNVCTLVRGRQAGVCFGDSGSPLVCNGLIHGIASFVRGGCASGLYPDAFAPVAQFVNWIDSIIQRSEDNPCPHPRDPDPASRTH
The experiment in a line: Inhibition of human leukocyte elastase by substrate hydrolysis based fluorescence assay.

The nature of assay [1]: Inhibition of trypsin by substrate hydrolysis based fluorescence assay.
Assay [2] can be described thus: Inhibition of tryptase by substrate hydrolysis based fluorescence assay.

Starred links: 1 amine or outer side, 2 acyl side, 3 side chain; linkers in the order of their positions; H or OH if unused. Positions of bridges follow the written chain, without caps; N, C: chain ends. Non-standard residues stand in square brackets, D forms with d. Residues, ends and D or L forms follow the SMILES beside them. X2 = N=C(N)NCCC[C@@H](C(=O)[C@H](CCC(N)=O)N[*:1])C(=O)[*:2]; X1 = NCCCC[C@@H](C(=O)[C@H](CCCCN)N[*:1])C(=O)[*:2]

On to `CC[C@H](C)[C@@H]1NC(=O)[C@@H]2CSSC[C@@H]3NC(=O)[C@H](C(C)C)NC(=O)CNC(=O)CNC(=O)[C@H](CC(=O)O)NC(=O)[C@H](CO)NC(=O)CNC(=O)[C@H](CO)NC(=O)CNC(=O)[C@@H]4CSSC[C@H](NC(=O)[C@H](CC(=O)O)NC(=O)[C@H](CO)NC(=O)[C@H](CC(=O)O)NC(=O)[C@H](CCCNC(=N)N)NC(=O)[C@H](CCCNC(=N)N)NC(=O)[C@H](CSSC[C@H](NC1=O)C(=O)N[C@@H](CCCNC(=N)N)C(=O)NCC(=O)N[C@@H](CC(N)=O)C(=O)NCC(=O)N[C@@H](Cc1ccc(O)cc1)C(=O)N4)NC(=O)[C@@H](CCCNC(=N)N)C(=O)[C@H](CCC(N)=O)NC(=O)[C@H](CC(C)C)NC(=O)[C@H]([C@@H](C)CC)NC(=O)[C@H](Cc1ccccc1)NC(=O)[C@@H]1CCCN1C3=O)C(=O)N1CCC[C@H]1C(=O)NCC(=O)N[C@@H](C)C(=O)N2` (cyclo(ACICRGNGYCGSGSDGGVCPFIL[X2]CRRDSDCPG); disulfide 2-19, 4-25, 10-31), for which the Ki was greater than 7500 nM at Neutrophil elastase (read-out: Ki), greater than 0.105 nM in assay [1] and greater than 50000 nM in assay [2].

For `CC[C@H](C)[C@@H]1NC(=O)[C@@H]2CSSC[C@@H]3NC(=O)[C@H](C(C)C)NC(=O)CNC(=O)CNC(=O)[C@H](CC(=O)O)NC(=O)[C@H](CO)NC(=O)CNC(=O)[C@H](CO)NC(=O)CNC(=O)[C@@H]4CSSC[C@H](NC(=O)[C@H](CC(=O)O)NC(=O)[C@H](CO)NC(=O)[C@H](CC(=O)O)NC(=O)[C@H](CCCNC(=N)N)NC(=O)[C@H](CCCNC(=N)N)NC(=O)[C@H](CSSC[C@H](NC1=O)C(=O)N[C@@H](CCCNC(=N)N)C(=O)NCC(=O)N[C@@H](CC(N)=O)C(=O)NCC(=O)N[C@@H](Cc1ccc(O)cc1)C(=O)N4)NC(=O)[C@@H](CCCCN)C(=O)[C@H](CCCCN)NC(=O)[C@H](CC(C)C)NC(=O)[C@H]([C@@H](C)CC)NC(=O)[C@H](CCCCN)NC(=O)[C@@H]1CCCN1C3=O)C(=O)N1CCC[C@H]1C(=O)NCC(=O)N[C@@H](C)C(=O)N2` (cyclo(ACICRGNGYCGSGSDGGVCPKIL[X1]CRRDSDCPG); disulfide 2-19, 4-25, 10-31), the Ki result at Neutrophil elastase is “Not Active”; in assay [1], 0.075 nM; in assay [2], 600 nM.

Regarding `CC[C@H](C)[C@@H]1NC(=O)[C@@H]2CSSC[C@@H]3NC(=O)[C@H](C(C)C)NC(=O)CNC(=O)CNC(=O)[C@H](CC(=O)O)NC(=O)[C@H](CO)NC(=O)CNC(=O)[C@H](CO)NC(=O)CNC(=O)[C@@H]4CSSC[C@H](NC(=O)[C@H](CC(=O)O)NC(=O)[C@H](CO)NC(=O)[C@H](CC(=O)O)NC(=O)[C@H](CCCNC(=N)N)NC(=O)[C@H](CCCNC(=N)N)NC(=O)[C@H](CSSC[C@H](NC1=O)C(=O)N[C@@H](CCCNC(=N)N)C(=O)NCC(=O)N[C@@H](CC(N)=O)C(=O)NCC(=O)N[C@@H](Cc1ccc(O)cc1)C(=O)N4)NC(=O)[C@@H](CCCNC(=N)N)C(=O)[C@H](CCC(N)=O)NC(=O)[C@H](CC(C)C)NC(=O)[C@H]([C@@H](C)CC)NC(=O)[C@H](CCCCN)NC(=O)[C@@H]1CCCN1C3=O)C(=O)N1CCC[C@H]1C(=O)NCC(=O)N[C@@H](C)C(=O)N2` (cyclo(ACICRGNGYCGSGSDGGVCPKIL[X2]CRRDSDCPG); disulfide 2-19, 4-25, 10-31), the Ki result at Neutrophil elastase is “Not Active”; in assay [1], 0.029 nM; in assay [2], 1600 nM.

For the compound `CC[C@H](C)[C@@H]1NC(=O)[C@@H]2CSSC[C@@H]3NC(=O)[C@H](C(C)C)NC(=O)CNC(=O)CNC(=O)[C@H](CC(=O)O)NC(=O)[C@H](CO)NC(=O)CNC(=O)[C@H](CO)NC(=O)CNC(=O)[C@@H]4CSSC[C@H](NC(=O)[C@H](CC(=O)O)NC(=O)[C@H](CO)NC(=O)[C@H](CC(=O)O)NC(=O)[C@H](CCCNC(=N)N)NC(=O)[C@H](CCCNC(=N)N)NC(=O)[C@H](CSSC[C@H](NC1=O)C(=O)N[C@@H](CCCNC(=N)N)C(=O)NCC(=O)N[C@@H](CC(N)=O)C(=O)NCC(=O)N[C@@H](Cc1ccc(O)cc1)C(=O)N4)NC(=O)[C@@H](CCCNC(=N)N)C(=O)[C@H](CCC(N)=O)NC(=O)[C@H](CC(C)C)NC(=O)[C@H]([C@@H](C)CC)NC(=O)[C@H](CCC(N)=O)NC(=O)[C@@H]1CCCN1C3=O)C(=O)N1CCC[C@H]1C(=O)NCC(=O)N[C@@H](C)C(=O)N2` (cyclo(ACICRGNGYCGSGSDGGVCPQIL[X2]CRRDSDCPG); disulfide 2-19, 4-25, 10-31), the Ki result at Neutrophil elastase is “Not Active”; in assay [1] it was greater than 0.106 nM; in assay [2] it was greater than 50000 nM.

For `CC[C@H](C)[C@@H]1NC(=O)[C@@H]2CSSC[C@@H]3NC(=O)[C@H](C(C)C)NC(=O)CNC(=O)CNC(=O)[C@H](CC(=O)O)NC(=O)[C@H](CO)NC(=O)CNC(=O)[C@H](CO)NC(=O)CNC(=O)[C@@H]4CSSC[C@H](NC(=O)[C@H](CC(=O)O)NC(=O)[C@H](CO)NC(=O)[C@H](CC(=O)O)NC(=O)[C@H](CCCNC(=N)N)NC(=O)[C@H](CCCNC(=N)N)NC(=O)[C@H](CSSC[C@H](NC1=O)C(=O)N[C@@H](CCCNC(=N)N)C(=O)NCC(=O)N[C@@H](CC(N)=O)C(=O)NCC(=O)N[C@@H](Cc1ccc(O)cc1)C(=O)N4)NC(=O)[C@@H](CCCNC(=N)N)C(=O)[C@H](CCC(N)=O)NC(=O)[C@H](CC(C)C)NC(=O)[C@H]([C@@H](C)CC)NC(=O)[C@H](CCCNC(=N)N)NC(=O)[C@@H]1CCCN1C3=O)C(=O)N1CCC[C@H]1C(=O)NCC(=O)N[C@@H](C)C(=O)N2` (cyclo(ACICRGNGYCGSGSDGGVCPRIL[X2]CRRDSDCPG); disulfide 2-19, 4-25, 10-31), the Ki entry on Neutrophil elastase was “Not Active”; in assay [1], 0.085 nM; in assay [2], 100 nM.

For the compound `CC[C@H](C)[C@@H]1NC(=O)[C@@H]2CSSC[C@@H]3NC(=O)[C@H](C(C)C)NC(=O)CNC(=O)CNC(=O)[C@H](CC(=O)O)NC(=O)[C@H](CO)NC(=O)CNC(=O)[C@H](CO)NC(=O)CNC(=O)[C@@H]4CSSC[C@H](NC(=O)[C@H](CC(=O)O)NC(=O)[C@H](CO)NC(=O)[C@H](CC(=O)O)NC(=O)[C@H](CCCNC(=N)N)NC(=O)[C@H](CCCNC(=N)N)NC(=O)[C@H](CSSC[C@H](NC1=O)C(=O)N[C@@H](CCCNC(=N)N)C(=O)NCC(=O)N[C@@H](CC(N)=O)C(=O)NCC(=O)N[C@@H](Cc1ccc(O)cc1)C(=O)N4)NC(=O)[C@@H](CCCNC(=N)N)C(=O)[C@H](CCC(N)=O)NC(=O)[C@H](CC(C)C)NC(=O)[C@H]([C@@H](C)CC)NC(=O)[C@H](C(C)C)NC(=O)[C@@H]1CCCN1C3=O)C(=O)N1CCC[C@H]1C(=O)NCC(=O)N[C@@H](C)C(=O)N2` (cyclo(ACICRGNGYCGSGSDGGVCPVIL[X2]CRRDSDCPG); disulfide 2-19, 4-25, 10-31), the Ki on Neutrophil elastase (read-out: Ki) is 21 nM; in assay [1], greater than 0.109 nM; in assay [2], greater than 50000 nM.

(Values after ChEMBL document CHEMBL1154296, “Potent inhibitors of beta-tryptase and human leukocyte elastase based on the MCoTI-II scaffold” (J Med Chem, 2009).)
